Experimental data taken from patent US4550186A, “Binuclear copper (II) carboxylates formed from amine-carboxyboranes” (Duke University, priority 1983, dated 1985).

What was measured:
thymidylate synthetase = thymidylate synthetase (Mus musculus, UniProt P07607); test: In vitro thymidylate synthetase activity; format: biochemical; conditions: 0.25 to 1.0 mM
Description: (§1) CF1 male mice (~30 g) were implanted with 2×10^6 Ehrlich ascites tumor cells, intraperitoneally on Day 0. Compound I was suspended by homogenation in 0.05% polysorbate.80-water and administered intraperitoneally at 10 and 20 mg/kg for 9 days to determine its effectiveness for inhibition of tumor growth. Mice were sacrificed on Day 10, and the ascites fluid was collected from the peritoneal cavity. The volume and ascrit (packed cell volume) were determined for each animal and the percent inhibition of tumor growth was calculated. For the metabolic studies, mice were treated on Days 8 and 9 with 10 mg/kg of Compound I, intraperitoneally. […]
(§2) Carbamyl phosphate synthetase activity was determined using the reaction medium of Kalman et al [Am. […] Citrulline formed from ornithine was measured at 490 nm by the method of Archibald [J. Biol. Chem., 156, 121 (1944)]. […] The ^14 CO2 generated in 15 min was trapped in 1M KOH and counted. Thymidylate synthetase activity was determined using a post-mitochondrial supernatant (9000 g×10 min) and 5 μCi of 5-^3 H-deoxyuridine monophosphate (14 Ci/mmol) according to the method of Kampf et al [ J. Med. Chem., 19, 903 (1976)]. ^14 C-Formate incorporation into purines was determined by the method of Spassova et al [Biochem. Pharmacol., 25, 923 (1976)] using 0.5 μCi of ^14 C-formic acid (52.0 mCi/mmol). […] The Rf value for xanthine monophosphate was scraped and counted. […]

ribonucleotide reductase = target: T1, ribonucleotide reductase (Mus musculus, UniProt P07742+P11157); test: In vivo ribonucleotide reductase activity
T1 construct: endogenous in cells; host or cells: Ehrlich ascites tumor cells
T1 sequence (P07742 1-792): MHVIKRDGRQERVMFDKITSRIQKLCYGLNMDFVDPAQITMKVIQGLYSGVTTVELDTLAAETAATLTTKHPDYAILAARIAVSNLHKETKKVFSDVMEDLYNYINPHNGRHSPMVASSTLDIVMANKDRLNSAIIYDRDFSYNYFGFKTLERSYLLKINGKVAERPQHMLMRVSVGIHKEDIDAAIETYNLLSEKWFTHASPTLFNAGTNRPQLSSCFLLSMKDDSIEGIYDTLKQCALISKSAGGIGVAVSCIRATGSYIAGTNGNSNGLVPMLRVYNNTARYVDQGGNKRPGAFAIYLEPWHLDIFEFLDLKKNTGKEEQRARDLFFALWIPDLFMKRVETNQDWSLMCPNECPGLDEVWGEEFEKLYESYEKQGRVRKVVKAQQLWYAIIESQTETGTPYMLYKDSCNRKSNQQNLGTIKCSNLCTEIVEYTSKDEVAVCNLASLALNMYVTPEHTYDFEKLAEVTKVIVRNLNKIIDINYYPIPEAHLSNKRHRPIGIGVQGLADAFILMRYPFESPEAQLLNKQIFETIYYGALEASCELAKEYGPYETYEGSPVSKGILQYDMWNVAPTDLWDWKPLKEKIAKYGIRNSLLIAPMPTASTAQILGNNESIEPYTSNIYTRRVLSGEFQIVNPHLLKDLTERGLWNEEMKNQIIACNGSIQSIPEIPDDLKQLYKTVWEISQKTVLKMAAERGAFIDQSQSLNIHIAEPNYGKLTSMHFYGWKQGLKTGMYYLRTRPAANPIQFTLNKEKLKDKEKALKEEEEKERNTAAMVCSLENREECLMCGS
T1 sequence (P11157 1-390): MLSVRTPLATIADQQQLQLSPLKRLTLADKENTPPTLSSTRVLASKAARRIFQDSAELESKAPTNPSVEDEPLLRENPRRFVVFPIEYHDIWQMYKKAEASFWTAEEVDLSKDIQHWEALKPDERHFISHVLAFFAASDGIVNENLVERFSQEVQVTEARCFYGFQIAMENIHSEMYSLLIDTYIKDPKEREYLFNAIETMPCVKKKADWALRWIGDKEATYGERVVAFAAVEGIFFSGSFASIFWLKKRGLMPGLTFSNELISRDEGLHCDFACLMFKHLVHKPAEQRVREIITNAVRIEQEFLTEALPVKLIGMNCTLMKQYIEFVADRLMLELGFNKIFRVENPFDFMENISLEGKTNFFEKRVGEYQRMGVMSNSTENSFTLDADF
Description: as §1, §2

[1] = target: deoxyribonucleic acid polymerase; test: In vitro deoxyribonucleic acid polymerase activity in isolated nuclei; format: biochemical, mouse; conditions: isolated nuclei from Ehrlich ascites cells, read-out: ID50, Deoxyribonucleic acid polymerase activity
Description: CF1 male mice (~30 g) were implanted with 2×10^6 Ehrlich ascites tumor cells, intraperitoneally on Day 0. Compound I was suspended by homogenation in 0.05% polysorbate.80-water and administered intraperitoneally at 10 and 20 mg/kg for 9 days to determine its effectiveness for inhibition of tumor growth. Mice were sacrificed on Day 10, and the ascites fluid was collected from the peritoneal cavity. The volume and ascrit (packed cell volume) were determined for each animal and the percent inhibition of tumor growth was calculated. For the metabolic studies, mice were treated on Days 8 and 9 with 10 mg/kg of Compound I, intraperitoneally. The animal was sacrificed on Day 10 and the ascites fluid harvested. The in vitro metabolic studies were performed at […] final concentration of Compound I.
In vitro and in vivo nuclear deoxyribonucleic acid polymerase activity was determined on isolated Ehrlich ascites cell nuclei. The incubation was that described by Sawada et al [Can. Res., 34, 3341 (1974)] except that [methyl-^3 H] deoxythymidine triphosphate (82.4 Ci/mmol) was used. The acid insoluble nucleic acid was collected on GF/F filters and counted. Nuclear ribonucleic acid polymerase activities were determined on enzymes isolated from nuclei. […] The acid insoluble ribonucleic acid was collected on nitrocellulose filters and counted.

Chain of thymidylate synthetase (P07607 whole entry): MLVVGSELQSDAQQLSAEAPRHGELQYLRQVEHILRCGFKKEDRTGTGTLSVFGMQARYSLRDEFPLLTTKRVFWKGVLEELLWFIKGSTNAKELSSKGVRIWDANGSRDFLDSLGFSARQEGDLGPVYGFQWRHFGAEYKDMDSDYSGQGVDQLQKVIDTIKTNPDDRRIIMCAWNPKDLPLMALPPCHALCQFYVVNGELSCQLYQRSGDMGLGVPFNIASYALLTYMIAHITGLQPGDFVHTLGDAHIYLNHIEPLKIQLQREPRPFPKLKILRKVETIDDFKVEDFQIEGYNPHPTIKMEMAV

{Cu[(CH3)3 N.BH2 CO2 ]2.(CH3)3 N.BH2 COOH} [Compound I]
thymidylate synthetase inhibition (thymidylate synthetase): not inhibited
Ribonucleotide reductase activity (ribonucleotide reductase): unaffected
Riboncleotide reductase activity (ribonucleotide reductase; 10 mg/kg/day I.P. on Days 8 and 9): 101 ± 8 % Control
IC50 [1]: 454 µM
